SMILES strings stand for the structures.

The target in the experiment is T1, NPY Y2 receptor (Homo sapiens, UniProt P49146).
T1 construct: endogenous in cells; host or cells: KAN-Ts cells (membrane preparation)
T1 sequence (P49146 1-381): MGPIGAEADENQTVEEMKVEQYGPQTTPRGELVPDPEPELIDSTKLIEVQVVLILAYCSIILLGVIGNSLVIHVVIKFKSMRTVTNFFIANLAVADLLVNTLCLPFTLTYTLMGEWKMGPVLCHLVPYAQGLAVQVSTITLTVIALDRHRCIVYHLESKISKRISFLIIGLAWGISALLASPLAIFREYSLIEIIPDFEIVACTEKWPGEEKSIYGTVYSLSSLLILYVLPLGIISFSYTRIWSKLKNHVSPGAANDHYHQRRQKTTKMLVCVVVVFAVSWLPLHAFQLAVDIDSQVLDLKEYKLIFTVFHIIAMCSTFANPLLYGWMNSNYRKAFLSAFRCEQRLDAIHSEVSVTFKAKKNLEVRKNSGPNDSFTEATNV
The experiment can be described thus: Neuropeptide Y2 radioligand binding assay ([125I]PYY, KAN-Ts cell membranes). As to conditions: membranes of KAN-Ts cells endogenously expressing Y2 receptors; [125I]PYY 80 pM; 1 h at rt; read-out: IC50 (μM), NPY Y2 binding. As for the experimental part: KAN-Ts endogenously expressing Y2 receptors were used for the radioligand binding assay. Cells were grown to confluence on 150 cm^2 tissue culture plates, washed with phosphate-buffered saline (PBS), and scraped into 50 mL tubes. After centrifugation, the supernatant was aspirated, and the pellets frozen and stored at −80° C. Thawed pellets were homogenized with a polytron tissue grinder for 15 sec in 20 mM Tris-HCl, 5 mM EDTA. The homogenate was centrifuged at 800×g for 5 min and the collected supernatant was recentrifuged at 25000×g for 25 min. The resulting pellet was resuspended in binding buffer (20 mM HEPES, 120 mM NaCl, 0.22 mM KH2PO4, 1.3 mM CaCl2, 0.8 mM MgSO4). Membranes were incubated with [^125I]PYY (80 pM) in the presence or absence of test compound for 1 h at rt. The reaction was stopped by filtration through GF/C filter plates pre-soaked in 0.3% polyethylenimine and subsequently washed with Tris 50 mM, 5 mM EDTA buffer. Plates were dried for 1 h in a 55° C. oven, scintillation fluid was added and the radioactivity was counted in a Packard TopCount. Specific binding to the NPY receptor subtypes was determined by radioactivity that was bound in the presence of […] NPY. Each binding experiment was repeated three to eight times, each in duplicate. IC50 values (i.e. concentration of unlabelled peptide or antagonist required to compete for 50% of specific binding to the radioligand) were determined using the GraphPad Prism software (GraphPad Software Inc., San Diego Calif.) with a fit to a sigmoidal dose response curve. Apparent K values were as K=IC50/(1+C/KD), where C is concentration of the radioligand.
For the compound `CC(C)c1noc(-c2ccc(N3CCN(C(C(=O)N(C)C)c4ccccc4)CC3)c(F)c2)n1` (stereo not shown) [Compound 180, 2-{4-[2-Fluoro-4-(3-isopropyl-[1,2,4]oxadiazol-5-yl)-phenyl]-piperazin-1-yl}-N,N-dimethyl-2-phenyl-acetamide], the half-maximal inhibitory concentration (IC50) (in general, the concentration that gives 50% inhibition) stood at 0.15 µM. With `CCc1noc(-c2ccc(N3CCN(C(C(=O)N(C)C)c4ccccc4)CC3)c(F)c2)n1` (stereo not shown) [Compound 181, 2-{4-[4-(3-Ethyl-[1,2,4]oxadiazol-5-yl)-2-fluoro-phenyl]-piperazin-1-yl}-N,N-dimethyl-2-phenyl-acetamide] the figure was 0.53 µM; with `Cc1noc(-c2ccc(N3CCN(C(C(=O)N(C)C)c4ccccc4)CC3)c(F)c2)n1` (stereo not shown) [Compound 182, 2-{4-[2-Fluoro-4-(3-methyl-[1,2,4]oxadiazol-5-yl)-phenyl]-piperazin-1-yl}-N,N-dimethyl-2-phenyl-acetamide], 0.56 µM; with `COC(=O)C(c1ccccc1)N1CCN(c2ccc(-c3nc(C)no3)cc2F)CC1` (stereo not shown) [Compound 183, {4-[2-Fluoro-4-(3-methyl-[1,2,4]oxadiazol-5-yl)-phenyl]-piperazin-1-yl}-phenyl-acetic acid methyl ester], 3.1 µM. Next, `CCN(C)C(=O)C(c1ccccc1)N1CCN(c2ccc(-c3nc(C(C)C)no3)cc2F)CC1` (stereo not shown) [Compound 184, N-Ethyl-2-{4-[2-fluoro-4-(3-isopropyl-[1,2,4]oxadiazol-5-yl)-phenyl]-piperazin-1-yl}-N-methyl-2-phenyl-acetamide]: 2.2 µM; `CC(C)c1noc(-c2ccc(N3CCN(C(C(=O)N4CCCC4)c4ccccc4)CC3)c(F)c2)n1` (stereo not shown) [Compound 185, 2-{4-[2-Fluoro-4-(3-isopropyl-[1,2,4]oxadiazol-5-yl)-phenyl]-piperazin-1-yl}-2-phenyl-1-pyrrolidin-1-yl-ethanone]: 0.12 µM; `CCN(CC)C(=O)C(c1ccccc1)N1CCN(c2ccc(-c3cc(C)nn3-c3ccccc3)cc2F)CC1` (stereo not shown) [Compound 186, N,N-Diethyl-2-{4-[2-fluoro-4-(5-methyl-2-phenyl-2H-pyrazol-3-yl)-phenyl]-piperazin-1-yl}-2-phenyl-acetamide]: 0.11 µM. Next, `CCN(CC)C(=O)C(c1ccccc1)N1CCN(c2ccc(-c3cccn3C(=O)OC(C)(C)C)cc2F)CC1` (stereo not shown) [Compound 187, 2-{4-[4-(Diethylcarbamoyl-phenyl-methyl)-piperazin-1-yl]-3-fluoro-phenyl}-pyrrole-1-carboxylic acid tert-butyl ester]: 5 µM; `CCN(CC)C(=O)C(c1ccccc1)N1CCN(c2ccc(-c3ccc[nH]3)cc2F)CC1` (stereo not shown) [Compound 188, N,N-Diethyl-2-{4-[2-fluoro-4-(1H-pyrrol-2-yl)-phenyl]-piperazin-1-yl}-2-phenyl-acetamide]: 0.63 µM. On to `Cc1noc(-c2ccc(N3CCN(C(C(=O)N4CCC(F)(F)CC4)c4ccccc4)CC3)c(F)c2)n1` (stereo not shown) [Compound 189, 1-(4,4-Difluoro-piperidin-1-yl)-2-{4-[2-fluoro-4-(3-methyl-[1,2,4]oxadiazol-5-yl)-phenyl]-piperazin-1-yl}-2-phenyl-ethanone], for which the IC50 worked out at 0.48 µM. Next, `CCNC(=O)C(c1ccccc1)N1CCN(c2ccc(-c3nc(C)no3)cc2F)CC1` (stereo not shown) [Compound 190, N-Ethyl-2-{4-[2-fluoro-4-(3-methyl-[1,2,4]oxadiazol-5-yl)-phenyl]-piperazin-1-yl}-2-phenyl-acetamide]: 0.33 µM; `CCN(CC)C(=O)C(c1ccccc1)N1CCN(c2ccc(C3=NN(C(C)C)C(=O)C3)cc2F)CC1` (stereo not shown) [Compound 191, N,N-Diethyl-2-{4-[2-fluoro-4-(1-isopropyl-5-oxo-4,5-dihydro-1H-pyrazol-3-yl)-phenyl]-piperazin-1-yl}-2-phenyl-acetamide]: 0.34 µM. As for `CCOC(=O)C(c1ccccc1)N1CCN(c2ccc(-c3nc(C)no3)cc2F)CC1` (stereo not shown) [Compound 192, {4-[2-Fluoro-4-(3-methyl-[1,2,4]oxadiazol-5-yl)-phenyl]-piperazin-1-yl}-phenyl-acetic acid ethyl ester], the IC50 is 0.38 µM. With `CCN(CC)C(=O)C(c1ccccc1)N1CCN(c2ccc(-c3ccccc3)cc2F)CC1` (stereo not shown) [Compound 193, N,N-Diethyl-2-[4-(3-fluoro-biphenyl-4-yl)-piperazin-1-yl]-2-phenyl-acetamide] the figure was 0.42 µM. With `CCN(CC)C(=O)C(c1ccccc1)N1CCN(c2ccc(-c3cccc(Cl)c3)cc2F)CC1` (stereo not shown) [Compound 194, 2-[4-(3′-Chloro-3-fluoro-biphenyl-4-yl)-piperazin-1-yl]-N,N-diethyl-2-phenyl-acetamide] the figure was 0.88 µM; with `CCN(CC)C(=O)C(c1ccccc1)N1CCN(c2ccc(-c3cnn(C)c3)cc2F)CC1` (stereo not shown) [Compound 195, N,N-Diethyl-2-{4-[2-fluoro-4-(1-methyl-1H-pyrazol-4-yl)-phenyl]-piperazin-1-yl}-2-phenyl-acetamide], 0.9 µM. With `CCN(CC)C(=O)C(c1ccccc1)N1CCN(c2ccc(-c3ccc(Cl)cc3)cc2F)CC1` (stereo not shown) [Compound 196, 2-[4-(4′-Chloro-3-fluoro-biphenyl-4-yl)-piperazin-1-yl]-N,N-diethyl-2-phenyl-acetamide] the figure was 0.92 µM; with `CCc1noc(-c2ccc(N3CCN(C(C(=O)N(C)CC)c4ccccc4)CC3)c(F)c2)n1` (stereo not shown) [Compound 197, N-Ethyl-2-{4-[4-(3-ethyl-[1,2,4]oxadiazol-5-yl)-2-fluoro-phenyl]-piperazin-1-yl}-N-methyl-2-phenyl-acetamide], 0.075 µM; with `CC(=O)C(c1ccccc1)N1CCN(c2ccc(-c3nc(C(C)C)no3)cc2F)CC1` (stereo not shown) [Compound 198, 1-{4-[2-Fluoro-4-(3-isopropyl-[1,2,4]oxadiazol-5-yl)-phenyl]-piperazin-1-yl}-1-phenyl-propan-2-one], 2.7 µM. Turning to `CCCCC(C(=O)N(CC)CC)N1CCN(c2ccc(-c3nc(C)no3)cc2F)CC1` (stereo not shown) [Compound 199, 2-{4-[2-Fluoro-4-(3-methyl-[1,2,4]oxadiazol-5-yl)-phenyl]-piperazin-1-yl}-hexanoic acid diethylamide], the IC50 stood at 2.8 µM. Next, `CCN(CC)C(=O)C(c1ccccc1)N1CCN(c2ccc(-c3cc(C)n[nH]3)cc2F)CC1` (stereo not shown) [Compound 200, N,N-Diethyl-2-{4-[2-fluoro-4-(5-methyl-2H-pyrazol-3-yl)-phenyl]-piperazin-1-yl}-2-phenyl-acetamide]: 0.81 µM; `CCN(CC)C(=O)C(c1ccccc1)N1CCN(c2ccc(-c3ccccn3)cc2F)CC1` (stereo not shown) [Compound 201, N,N-Diethyl-2-[4-(2-fluoro-4-pyridin-2-yl-phenyl)-piperazin-1-yl]-2-phenyl-acetamide]: 0.74 µM; `CCN(CC)C(=O)C(c1ccccc1)N1CCN(c2ccc(-c3cccnc3)cc2F)CC1` (stereo not shown) [Compound 202, N,N-Diethyl-2-[4-(2-fluoro-4-pyridin-3-yl-phenyl)-piperazin-1-yl]-2-phenyl-acetamide]: 1 µM.

With `CCN(CC)C(=O)C(c1ccccc1)N1CCN(c2ccc(-c3ccc(C)cc3)cc2F)CC1` (stereo not shown) [Compound 204, N,N-Diethyl-2-[4-(3-fluoro-4′-methyl-biphenyl-4-yl)-piperazin-1-yl]-2-phenyl-acetamide], the concentration for half-maximal inhibition (IC50) came out at 0.77 µM.

For `CCN(CC)C(=O)C(c1ccccc1)N1CCN(c2ccc(-c3ccc(OC)cc3)cc2F)CC1` (stereo not shown) [Compound 205, N,N-Diethyl-2-[4-(3-fluoro-4′-methoxy-biphenyl-4-yl)-piperazin-1-yl]-2-phenyl-acetamide], the IC50 is 1.9 µM. Next, `CCN(CC)C(=O)C(c1ccccc1)N1CCN(c2ccc(-c3cccc(C)c3)cc2F)CC1` (stereo not shown) [Compound 206]: 0.48 µM.

`CCN(CC)C(=O)C(c1ccccc1)N1CCN(c2ccc(-c3ccc(F)cc3)cc2F)CC1` (stereo not shown) [Compound 207, 2-[4-(3,4′-Difluoro-biphenyl-4-yl)-piperazin-1-yl]-N,N-diethyl-2-phenyl-acetamide]: the IC50 was 1.1 µM. Next, `CCN(CC)C(=O)C(c1ccccc1)N1CCN(c2ccc(-c3nc(C)n[nH]3)cc2F)CC1` (stereo not shown) [Compound 208, N,N-Diethyl-2-{4-[2-fluoro-4-(5-methyl-2H-[1,2,4]triazol-3-yl)-phenyl]-piperazin-1-yl}-2-phenyl-acetamide]: 2.9 µM.
